US20240226072A1 (Stichting Het Nederlands Kanker Instituut, priority 2022, published 2024)
Like-named read-outs stand apart in the source and are kept apart here.

What was measured:
[1] = Preclinical population PK model (NONMEM) of oral cabazitaxel and ritonavir in Cyp3aXAV mice
Experimental: Population PK modeling was performed using nonlinear mixed-effects modeling in NONMEM (version 7.5.0, ICON Development Solutions, Ellicott City, MD, USA) with a gfortran compiler and Perl-speaks-NONMEM (version 5.3.0) (Beal SL SL. NONMEM user guides. Ellicott City, Maryland, USA. 1989; Lindbom et al. Comput Methods Programs Biomed. 2005). All models were fit with first order conditional estimation method with η-ε interaction (FOCE-I). Pirana (version 2.9.9) was used as a modeling interface. R (version 4.0.4) was used for data management, visual model evaluation, and analysis and visualization of simulation data.
Due to its predictive value for human hepatic CYP3A metabolism, the PK data obtained in the Cyp3aXAV mouse model was used in the current study (Damoiseaux et al. Pharmaceuticals. 2022). […] Depending on the study, each experiment was terminated by cardiac puncture at either 2 hours or 24 hours after administration.
In the development of the compartmental PK models, inclusion of model elements, such as the number of compartments, inter-individual variability (IIV), covariate effects, and residual random effects were guided by differences in objective function value (OFV), plausibility of parameter estimates, observation of trends in goodness of fit plots, and differences in estimation precision.
This well-stirred liver model assumes the liver to have a fixed volume and blood flow and hepatic clearance (CL) is calculated as a function of hepatic blood flow (Q1) and intrinsic clearance (CLi) following Eq.1.
In the variability model, it was assumed that IIV is log-normally distributed. With Eq. 5 defining the expression for the individual parameter estimate θi.
Where θpop represents population mean parameter estimate and ηi represents its individual deviation, which is distributed following N (0, ω^2). For both PK models, in was assumed that the residual error has both an additive and proportional component. The additive component of the error model was included only for observations which were designated as <LLOQ. Time points for which no quantity of either drug could be detected were discarded. For determination of the LLOQ a signal-to-noise ratio (S/N) of 10 is applied. Thus, a fixed additive error was set for observations <LLOQ which was set to 1/10th of the LLOQ for the respective compound. Consequently, individual model predictions are related to observations following Eq. 6.
Where Cobs,ij represents the observation for the ith subject and the jth measurement. With Cpred,ij the respective prediction. Both the proportional error ep, and additive error εa,ij were assumed to be distributed following N (0, σ^2). LLOQij was included as a data record, which was set to one for observations that were below the limit of quantification.
Evaluation of candidate models was based on plausibility and precision of parameter estimates, observation of trends in goodness-of-fit plots, η and ε-shrinkage, and decreases in OFV for which a change in OFV of 3.84, corresponding to α=0.05, was considered to be significant for hierarchical models. All models were required to achieve successful minimization. The predictive performance of the model was evaluated by simulating 500 datasets using the candidate models from which the 5th, 50th, and 95th percentiles were calculated, along with their 95% confidence intervals, which were compared with the 5th, 50th, and 95th of the observations using a visual predictive check (VPC). The uncertainty in the final parameter estimates was evaluated using a sampling importance-resampling (SIR) algorithm (Dosne et al. J Pharmacokinet Pharmacodyn. 2017).

[2] = Carboxylesterase pharmacokinetic experiment: oral cabazitaxel 10 mg/kg, 2 h, in wild-type, Ces1cde−/− and Ces1−/− mice; assay type: in vivo; conditions: for lower plasma AUC0-2h / reduction of Cmax: oral cabazitaxel 10 mg/kg; for Kp at 2 h / Cmax / Tmax / AUC(0-t): male, FVB, mouse, po, 10 mg/kg; for Cmax / Tmax / AUC(0-t): plasma; for AUC(0-t): read-out: AUC0-120min
Experimental: The experiment was terminated by cardiac puncture at 2 hours. The organ collection and sample pretreatment were as described above.
Differences were considered statistically significant when P<0.05. All data are presented as geometric mean±SD.
This experiment was performed in the absence of ritonavir.

[3] = in vivo
Experimental: Male wild-type, Oatp1a/1b^−/−, transgenic OATP1B1 and OATP1B3 mice in an Oatp1a/1b^−/− background, Oatp1a/1b/2b1b^−/−, Ces1b^−/− and Ces1cdeb^−/− mice were used.
The Accord (20 mg/mL) formulation contains polysorbate 80, citric acid and 395 mg/mL anhydrous ethanol. […] The stock solution was further diluted 5-fold with water to obtain a 2.5 mg/mL dosing solution for oral administration. The vehicle solution only consisted of polysorbate 80, ethanol and water (1:1:8, v/v/v). All dosing solutions were prepared freshly on the day of the experiment.
The termination time point was at 2 hours and 15 minutes. […] The termination, organ collection and sample pretreatment were as described above.
Non-compartmental analysis was performed to estimate the pharmacokinetic parameters by using the software package PK solutions 2.0.2 (SUMMIT, Research Service). The linear trapezoidal rule without extrapolating to infinity was used to calculate the area under the curve (AUC) of the plasma-concentration time curve for all the compounds. The peak plasma concentration (Cmax) and the time to reach peak plasma concentration (Tmax) were obtained directly from the individual raw data. […] GraphPad Prism 9 (GraphPad Software Inc., La Jolla, CA) was used for the statistical analysis and the preparation of the graphs. […]

[4] = cabazitaxel PK model, allometrically scaled to a 70 kg human
[5] = inter-individual variability, population PK model, Cyp3aXAV mice
[6] = Ces1cde−/− compared to wild-type mice
[7] = Ces1−/− compared to wild-type mice
[8] = Ces1cde−/− mice, oral 10 mg/kg cabazitaxel
[9] = Ces1−/− mice, oral 10 mg/kg cabazitaxel
[10] = wild-type mice, oral 10 mg/kg cabazitaxel
[11] = wild-type mice, oral 10 mg/kg cabazitaxel, 2 h

SMILES: CO[C@H]1C(=O)[C@]2(C)[C@@H](OC)C[C@H]3OC[C@@]3(OC(C)=O)[C@H]2[C@H](OC(=O)c2ccccc2)[C@]2(O)C[C@H](OC(=O)[C@H](O)[C@@H](NC(=O)OC(C)(C)C)c3ccccc3)C(C)=C1C2(C)C [cabazitaxel]
- Ka, 10 mg/kg, First-order absorption rate constant when co-administered with 10 mg/kg ritonavir ([1]; cabazitaxel PK model): 2.62 h⁻¹
- Ka, 25 mg/kg, First-order absorption rate constant when co-administered with 25 mg/kg ritonavir ([1]; cabazitaxel PK model): 1.22 h⁻¹
- Ka, First-order absorption rate constant ([1]; cabazitaxel PK model, Cyp3aXAV mice): 5.83 h⁻¹
- CLint, Uninhibited intrinsic clearance ([1]; cabazitaxel PK model, Cyp3aXAV mice, allometrically scaled to a 70 kg human): 106 L/h
- Q2, Inter compartment clearance [1, 4]: 27.7 L/h
- VP, Peripheral volume [1, 4]: 613 L
- IIV F [1, 5]: 22.7 CV %
- IIV Ka [1, 5]: 63.4 CV %
- VC, Central volume ([1]; population PK model, Cyp3aXAV mice, allometrically scaled to a 70 kg human): 293 L
- lower absolute testis concentration ([2]; Ces1cde−/− compared to wild-type mice, 2 h): 2.3 fold
- lower plasma AUC0-2h [2, 6]: 6.7 fold
- reduction of Cmax [2, 6]: 5.4 fold
- SIC (% of dose), small intestinal content as percentage of dose ([2]; Ces1cde−/− mice, oral 10 mg/kg cabazitaxel, 2 h): 0.16 ± 0.09 % of dose
- lower absolute testis concentration ([2]; Ces1−/− compared to wild-type mice, 2 h): 2.6 fold
- lower plasma AUC0-2h [2, 7]: 7.2 fold
- reduction of Cmax [2, 7]: 6.0 fold
- SIC (% of dose), small intestinal content as percentage of dose ([2]; Ces1−/− mice, oral 10 mg/kg cabazitaxel, 2 h): 0.10 ± 0.04 % of dose
- Kp at 2 h ([2]; brain, Ces1cde−/− mice, oral 10 mg/kg cabazitaxel, 2 h, read-out: Brain-to-plasma ratio): 0.28 ± 0.06
- Kp at 2 h ([2]; brain, Ces1−/− mice, oral 10 mg/kg cabazitaxel, 2 h, read-out: Brain-to-plasma ratio): 0.43 ± 0.06
- Kp at 2 h ([2]; brain, wild-type mice, oral 10 mg/kg cabazitaxel, 2 h, read-out: Brain-to-plasma ratio): 0.04 ± 0.003
- Kp at 2 h ([2]; liver, Ces1cde−/− mice, oral 10 mg/kg cabazitaxel, 2 h, read-out: Liver-to-plasma ratio): 13.1 ± 4.6
- Kp at 2 h ([2]; liver, Ces1−/− mice, oral 10 mg/kg cabazitaxel, 2 h, read-out: Liver-to-plasma ratio): 14.9 ± 4.49
- Kp at 2 h ([2]; liver, wild-type mice, oral 10 mg/kg cabazitaxel, 2 h, read-out: Liver-to-plasma ratio): 1.64 ± 0.59
- Cmax [2, 8]: 1080 ± 450 nM
- Tmax [2, 8]: 25 min
- AUC(0-t) [2, 8]: 1.03 ± 0.395 µM·h
- Cmax [2, 9]: 969 ± 219 nM
- Tmax [2, 9]: 32.5 min
- AUC(0-t) [2, 9]: 0.946 ± 0.22 µM·h
- Cmax [2, 10]: 5830 ± 1800 nM
- Tmax [2, 10]: 25 min
- AUC(0-t) [2, 10]: 6.86 ± 1.94 µM·h
- CLiver [2, 11]: 2035 ± 460 pmol/g
- Cbrain [2, 11]: 49.9 ± 5.96 pmol/g
- SIC (% of dose), small intestinal content as percentage of dose [2, 11]: 0.11 ± 0.06 % of dose

SMILES: CC(C)c1nc(CN(C)C(=O)N[C@H](C(=O)N[C@@H](Cc2ccccc2)C[C@H](O)[C@H](Cc2ccccc2)NC(=O)OCc2cncs2)C(C)C)cs1 [ritonavir]
- Tmax ([3]; male, FVB, mouse, in vivo, po, 25 mg/kg): 65 min
- Cbrain ([3]; wild-type mice, oral 25 mg/kg ritonavir alone, 2 h 15 min): 123 ± 57.8 pmol/g
